Consider two molecules from ChEMBL document CHEMBL1121510, “Resolution, absolute configuration, and antiarrhythmic properties of the enantiomers of disopyramide, 4-(diisopropylamino)-2-(2-pyridyl)-2-phenylbutyramide” (1980).

The species named for assay [1] is Oryctolagus cuniculus. Description: Antiarrhythmic activity expressed as change in effective refractory period (DeltaERP) induced in rabbit ventricle by the Enantiomeric Disopyramide Bitartrates at a concentration of 1.5x10E-5M. Format: functional, Heart.
Assay [2] is filed under the species Oryctolagus cuniculus. The assay is described as follows: Antiarrhythmic activity expressed as change in effective refractory period (DeltaERP) induced in rabbit ventricle by the Enantiomeric Disopyramide Bitartrates at a concentration of 3.0x10E-6M. The assay is classed as functional, Heart.

For the molecule `CC(C)N(CC[C@](C(N)=O)(c1ccccc1)c1ccccn1)C(C)C` [(S)-DISOPYRAMIDE], the “Delta ERP” value in the assay listed under Oryctolagus cuniculus [1] was 41.2 ms; in the assay listed under Oryctolagus cuniculus [2] it was 21.8 ms.
The matching figures for `CC(C)N(CC[C@@](C(N)=O)(c1ccccc1)c1ccccn1)C(C)C` [DISOPIRAMIDE]: 50.5 ms and 25.8 ms.
